{"source": "patent US11761045B2", "about": "“Splice variants associated with neomorphic SF3B1 mutants” (Eisai R&D Management Co., Ltd., priority 2015, dated 2023)", "key": {"SF3B1^K700E": {"molecular_target": "SF3B1^K700E (Homo sapiens, UniProt O75533+Q7RTV0, K700E)", "sequence (Q15393 whole entry, stated change not applied)": "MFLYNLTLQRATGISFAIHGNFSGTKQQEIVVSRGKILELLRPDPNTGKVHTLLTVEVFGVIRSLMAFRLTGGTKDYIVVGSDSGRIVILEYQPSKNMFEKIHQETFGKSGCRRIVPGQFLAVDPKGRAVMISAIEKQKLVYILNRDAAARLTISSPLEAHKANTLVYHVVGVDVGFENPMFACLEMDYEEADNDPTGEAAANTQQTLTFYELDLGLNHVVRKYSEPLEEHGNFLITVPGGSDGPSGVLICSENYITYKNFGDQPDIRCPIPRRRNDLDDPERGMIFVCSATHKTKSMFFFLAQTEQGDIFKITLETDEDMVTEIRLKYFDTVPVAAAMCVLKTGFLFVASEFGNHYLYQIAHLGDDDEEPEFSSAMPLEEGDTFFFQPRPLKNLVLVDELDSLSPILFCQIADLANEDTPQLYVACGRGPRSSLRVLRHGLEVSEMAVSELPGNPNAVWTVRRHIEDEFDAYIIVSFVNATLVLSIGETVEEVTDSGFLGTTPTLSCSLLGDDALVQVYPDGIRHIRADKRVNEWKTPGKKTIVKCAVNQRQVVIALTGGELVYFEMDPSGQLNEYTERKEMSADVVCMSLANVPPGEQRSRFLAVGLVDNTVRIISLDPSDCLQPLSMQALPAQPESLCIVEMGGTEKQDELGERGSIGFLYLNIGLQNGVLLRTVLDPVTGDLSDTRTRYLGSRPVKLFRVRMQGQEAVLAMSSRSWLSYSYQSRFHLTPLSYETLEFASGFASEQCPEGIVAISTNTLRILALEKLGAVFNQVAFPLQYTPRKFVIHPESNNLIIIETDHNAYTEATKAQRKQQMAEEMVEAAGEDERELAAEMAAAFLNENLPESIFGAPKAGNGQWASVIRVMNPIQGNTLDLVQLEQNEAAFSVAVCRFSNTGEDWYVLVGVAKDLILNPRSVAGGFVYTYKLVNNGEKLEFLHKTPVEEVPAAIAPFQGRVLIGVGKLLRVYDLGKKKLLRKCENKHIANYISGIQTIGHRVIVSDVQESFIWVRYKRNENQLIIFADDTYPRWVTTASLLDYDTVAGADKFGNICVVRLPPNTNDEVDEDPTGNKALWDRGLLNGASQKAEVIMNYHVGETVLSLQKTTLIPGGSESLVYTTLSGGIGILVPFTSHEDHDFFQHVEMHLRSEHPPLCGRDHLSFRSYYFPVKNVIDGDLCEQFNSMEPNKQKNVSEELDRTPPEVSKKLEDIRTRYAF", "sequence (Q9BWJ5 whole entry, further chain)": "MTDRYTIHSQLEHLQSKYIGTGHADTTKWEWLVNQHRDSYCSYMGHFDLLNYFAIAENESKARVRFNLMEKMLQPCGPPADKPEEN", "sequence (Q7RTV0 whole entry)": "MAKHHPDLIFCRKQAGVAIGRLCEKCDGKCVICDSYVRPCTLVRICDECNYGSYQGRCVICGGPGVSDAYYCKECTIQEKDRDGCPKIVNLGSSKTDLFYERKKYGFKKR", "sequence (O75533 whole entry K700E)": "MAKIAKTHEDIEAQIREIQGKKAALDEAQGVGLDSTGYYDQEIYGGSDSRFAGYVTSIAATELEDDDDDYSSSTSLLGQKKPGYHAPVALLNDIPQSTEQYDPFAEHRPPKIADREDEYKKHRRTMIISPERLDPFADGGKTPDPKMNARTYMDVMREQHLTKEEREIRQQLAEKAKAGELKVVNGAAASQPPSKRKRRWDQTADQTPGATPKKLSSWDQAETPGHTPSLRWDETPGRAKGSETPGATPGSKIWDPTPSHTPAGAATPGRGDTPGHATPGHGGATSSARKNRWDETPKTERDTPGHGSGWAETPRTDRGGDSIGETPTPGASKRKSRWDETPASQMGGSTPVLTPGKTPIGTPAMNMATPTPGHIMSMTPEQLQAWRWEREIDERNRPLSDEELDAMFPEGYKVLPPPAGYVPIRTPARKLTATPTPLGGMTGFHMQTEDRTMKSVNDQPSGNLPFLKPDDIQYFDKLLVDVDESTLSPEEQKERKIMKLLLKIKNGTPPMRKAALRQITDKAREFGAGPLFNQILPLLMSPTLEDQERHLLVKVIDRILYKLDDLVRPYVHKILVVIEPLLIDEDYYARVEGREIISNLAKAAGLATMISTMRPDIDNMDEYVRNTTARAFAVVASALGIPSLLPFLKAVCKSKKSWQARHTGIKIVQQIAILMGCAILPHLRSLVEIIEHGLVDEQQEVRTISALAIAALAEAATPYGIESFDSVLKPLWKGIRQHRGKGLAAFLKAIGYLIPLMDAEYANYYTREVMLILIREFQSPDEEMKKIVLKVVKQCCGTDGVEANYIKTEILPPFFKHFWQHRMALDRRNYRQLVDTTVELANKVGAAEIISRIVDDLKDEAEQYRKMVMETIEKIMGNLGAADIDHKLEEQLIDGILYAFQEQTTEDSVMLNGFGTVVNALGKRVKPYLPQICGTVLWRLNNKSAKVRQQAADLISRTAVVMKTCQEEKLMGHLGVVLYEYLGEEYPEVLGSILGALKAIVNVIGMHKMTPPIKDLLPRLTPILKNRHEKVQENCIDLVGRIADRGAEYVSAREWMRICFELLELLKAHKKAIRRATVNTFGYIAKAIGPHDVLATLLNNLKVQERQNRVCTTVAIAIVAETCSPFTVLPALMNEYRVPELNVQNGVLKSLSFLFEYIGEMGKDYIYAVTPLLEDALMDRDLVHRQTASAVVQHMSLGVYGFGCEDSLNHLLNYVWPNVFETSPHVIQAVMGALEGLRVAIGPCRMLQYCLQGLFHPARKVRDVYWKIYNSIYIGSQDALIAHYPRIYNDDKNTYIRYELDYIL", "experiment": "Competitive binding assay (SPA, 3H-probe molecule) with Flag-tag SF3B1 from 293F cells", "design": "expressed in transfected cells; host or cells: 293F cells (Life Technologies), transient transfection with pFLAG-CMV-2-SF3B1 K700E", "settings": "one nM 3H-probe; Flag-tag SF3B1^K700E from transfected 293F cells; read-out: IC50, competitive inhibition of binding of the 3H-probe molecule", "description": "The ability of E7107 to bind both SF3B1^WT and SF3B1^K700E proteins was evaluated in a competitive binding assay using Flag-tag SF3B1 proteins immunoprecipitated with anti-Flag antibody from transiently transfected 293F cells. Batch immobilization of antibody to beads was prepared by incubating 80 μg of anti-SF3B1 antibody (MBL International) and 24 mg anti-mouse PVT SPA scintillation beads (PerkinElmer) for 30 minutes. After centrifugation, the antibody-bead mixture was resuspended in PBS supplemented with PhosSTOP phosphatase inhibitor cocktail (Roche) and complete ULTRA protease inhibitor cocktail (Roche). Nuclear extracts were prepared by diluting 40 mg into a total volume of 16 mL PBS with phosphatase and protease inhibitors, and the mixture was centrifuged. The supernatant was transferred into a clean tube, and the antibody-bead mixture was added and incubated for two hours. The beads were collected by centrifuging, washed twice with PBS+0.1% Triton X-100, and resuspended with 4.8 mL of PBS. 100 μL binding reactions were prepared using slurry and varying concentrations of E7107. […] The mixture was incubated at room temperature for 15 minutes, and luminescence signals were read using a MicroBeta2 Plate Counter (PerkinElmer)."}, "Nalm-6 SF3B1^K700E cells [1]": {"test_system": "Nalm-6 SF3B1^K700E cells", "experiment": "Normal and aberrant splicing in Nalm-6 isogenic cells by qPCR", "type": "cell-based, human", "settings": "increasing concentrations, six hours", "description": "(§1) E7107 was also tested in vitro in Nalm-6 isogenic cell lines for the ability to modulate normal and aberrant splicing induced by SF3B1^WT and SF3B1^K700E protein. Nalm-6 isogenic cells were treated with increasing concentrations of E7107 for six hours and RNA was analyzed by qPCR.\n(§2) In addition, the ability of E7107 to modulate splicing was tested in mice bearing human tumor xenografts. Nalm-6 isogenic xenograft mice were generated by subcutaneously implanting 10×10^6 Nalm-6 isogenic cells into the flank of CB17-SCID mice, and tumors from these mice were collected at different timepoints after a single intravenous (IV) dose of E7107 (5 mg/kg) and analyzed to determine compound concentrations and splicing regulation. RNA was isolated from the tumors using RiboPure™ RNA purification kit (Ambion®) and used for NanoString® assay or qPCR. The RNA was retrotranscribed according to the instructions of the SuperScript® VILO™ cDNA synthesis kit (Invitrogen™) and 0.04 μl of cDNA was used for qPCR. qPCR for pre-mRNA EIF4A1 and mature mRNA […] and pharmacokinetic evaluation were performed as described in Eskens, F. A. et al. “Phase I pharmacokinetic and pharmacodynamic study of the first-in-class spliceosome inhibitor E7107 in patients with advanced solid tumors.” Clin Cancer Res 19, 6296-6304, doi:10.1158/1078-0432.CCR-13-0485 (2013). The primers and probes used for ZDHHC16 were the following: FW 5′-[…] (SEQ ID NO: 1194), RW 5′ […] (SEQ ID NO: 1195) and probe 5′ FAM […] (SEQ ID NO: 1196). The primers and probes used for COASY were the following: FW 5′-CGGTGGTGCAAGTGGAA (SEQ ID NO: 1197), RW 5′-[…] (SEQ ID NO: 1198) and probe 5′-FAM-[…] (SEQ ID NO: 1199)."}, "Nalm-6 SF3B1^K700K cells [2]": {"test_system": "Nalm-6 SF3B1^K700K cells", "experiment": "Normal and aberrant splicing in Nalm-6 isogenic cells by qPCR", "type": "cell-based, human", "settings": "increasing concentrations, six hours", "description": "as §1, §2"}, "Nalm-6 SF3B1^K700E cells [3]": {"test_system": "Nalm-6 SF3B1^K700E cells", "experiment": "Splice variant levels in Nalm-6 isogenic cells by NanoString assay", "type": "cell-based, human", "settings": "15 nM", "description": "(§3) A NanoString® assay was developed to quantify aberrant and canonical splice variants and was validated using the same cell panel. For the NanoString® assay, 750 ng of purified total RNA was used as template for the nCounter® (NanoString Technologies®) expression assay using a custom panel of NanoString® probes. The sample preparation was set up as recommended (NanoString® Technologies protocol no. C-0003-02) for an overnight hybridization at 65° C. The following day, samples were processed through the automated nCounter® Analysis System Prep Station using the high sensitivity protocol (NanoString® Technologies protocol no. MAN-00029-05) followed by processing through the nCounter® Analysis System Digital Analyzer (protocol no. MAN-00021-01) using 1150 FOVs for detection. Data was downloaded and analyzed for quality control metrics and normalization using the nSolver™ Analysis Software (NanoString Technologies®). The data was first normalized for lane-to-lane variation using the positive assay controls provided by the manufacturer (NanoString® positive controls A-F [containing in vitro transcribed RNA transcripts at concentrations of 128 fM, 32 fM, 8 fM, 2 fM, 0.5 fM, and 0.125 fM, each pre-mixed with NanoString® Reporter CodeSet probes])). Any samples with normalization factors <0.3 and >3 were not considered for further analysis. This was followed by content normalization using the geo-mean of GAPDH, EEF1A1 and RPLP0. All samples were within the recommended 0.1-10 normalization factor range. Each normalized value was then checked to ensure that it was at least two standard deviations higher than the average of background signal recorded for that lane. Any value below that was considered below detection limit. These normalized values were taken for further bioinformatics and statistical analysis.\n(§4) To investigate the broader activity of E7107 on normal and aberrant splicing, RNA from Nalm-6 isogenic cells treated for two and six hours at 15 nM was analyzed by NanoString®. […] Normal and aberrant splicing in the isogenic cell lines was also analyzed by RNA-Seq following treatment with one of additional compounds having formulas 1 or 2. […] For the RNA-Seq analysis, cells were washed with PBS after treatment with E7107 or other test compound, and RNA was isolated using PureLink (Life Technology) as reported in the manufacturer's manual. cDNA library preparation, sequencing and raw read filtering was performed as described in Ren, S. et al. “RNA-Seq analysis of prostate cancer in the Chinese population identifies recurrent gene fusions, cancer-associated long noncoding RNAs and aberrant alternative splicings.” Cell Res 22, 806-821, doi:10.1038/cr.2012.30 (2012)."}, "Nalm-6 SF3B1^K700K cells [4]": {"test_system": "Nalm-6 SF3B1^K700K cells", "experiment": "Splice variant levels in Nalm-6 isogenic cells by NanoString assay", "type": "cell-based, human", "settings": "15 nM", "description": "as §3, §4"}}}
{"smiles": "CC[C@H](O)[C@@H](C)[C@H]1O[C@@H]1C[C@@](C)(O)/C=C/C=C(\\C)[C@H]1OC(=O)C[C@H](O)CC[C@@](C)(O)[C@@H](OC(=O)N2CCN(C3CCCCCC3)CC2)/C=C/[C@@H]1C", "note": "[Compound E7107]", "values": [{"measurement": "IC50", "setting": "SF3B1^K700E", "result": 11, "unit": "nM"}, {"measurement": "EIF4A1 pre-mRNA level (canonical splicing)", "setting": "Nalm-6 SF3B1^K700E cells [1]", "result": "accumulation of pre-mRNA for EIF4A1"}, {"measurement": "SLC25A19 mature mRNA level (canonical splicing)", "setting": "Nalm-6 SF3B1^K700E cells [1]", "result": "downregulation of the mature mRNA SLC25A19"}, {"measurement": "mature mRNA of abnormally spliced isoform of COASY", "setting": "Nalm-6 SF3B1^K700E cells [1]", "result": "downregulation of mature mRNA"}, {"measurement": "mature mRNA of abnormally spliced isoform of ZDHHC16", "setting": "Nalm-6 SF3B1^K700E cells [1]", "result": "downregulation of mature mRNA"}, {"measurement": "EIF4A1 pre-mRNA level (canonical splicing)", "setting": "Nalm-6 SF3B1^K700K cells [2]", "result": "accumulation of pre-mRNA for EIF4A1"}, {"measurement": "SLC25A19 mature mRNA level (canonical splicing)", "setting": "Nalm-6 SF3B1^K700K cells [2]", "result": "downregulation of the mature mRNA SLC25A19"}, {"measurement": "inhibition of splicing (all isoforms quantified)", "setting": "Nalm-6 SF3B1^K700E cells [3]; six hours", "result": "clear inhibition"}, {"measurement": "inhibition of splicing (gene, WT-associated and MUT-associated isoform expression)", "setting": "Nalm-6 SF3B1^K700E cells [3]; two hours", "result": "partial inhibition of splicing"}, {"measurement": "inhibition of splicing (all isoforms quantified)", "setting": "Nalm-6 SF3B1^K700K cells [4]; six hours", "result": "clear inhibition"}, {"measurement": "inhibition of splicing (gene, WT-associated and MUT-associated isoform expression)", "setting": "Nalm-6 SF3B1^K700K cells [4]; two hours", "result": "partial inhibition of splicing"}]}
